The text below walks through data of publication PMC5394527 (Journal of Medicinal Chemistry, 2017).

Data set [1] deals with SJSA-1 osteosarcoma tumor xenograft. The note with it: for antitumor activity in SJSA-1 xenograft model: mice; for antitumor efficacy (regression): last line of Table 6, SJSA-1 xenograft model in mice; for weight loss of mice during the experiment: SJSA-1 xenograft experiment, 30 or 100 mg/kg daily for 14 days.
In data set [2] the test system is p53 activation (MDM2, p53, p21, cleaved PARP, cleaved caspase-3) in SJSA-1 tumors. The note with it: mice, single oral dose 100 mg/kg.
Data set [3] relates to SJSA-1 cancer cell line. The conditions noted are these: cited from earlier work.
Data set [4] relates to SJSA-1 osteosarcoma tumor xenograft. The conditions noted are these: mice; cited from earlier work.
Data set [5] deals with MDM2 (Homo sapiens, UniProt Q00987).
The subject of data set [6] is SJSA-1 cancer cell line. Briefly: cells. The note with it: Homo sapiens, SJSA-1, read-out: SJSA-1 IC50, cell growth inhibition.
For data set [7] the following is noted: cited from earlier work.
Data set [8] relates to RS4;11 acute lymphoblastic leukemia xenograft. The note with it: for antitumor activity in RS4;11 xenograft model: mice.
Where [9] appears, read: oral gavage 100 mg/kg daily for 14 days.
[10] abbreviates: oral 30 mg/kg daily for 14 days.

Each structure is given as a SMILES string. Like-named read-outs stand apart in the source and are kept apart here.

Chain of MDM2 (Q00987 whole entry): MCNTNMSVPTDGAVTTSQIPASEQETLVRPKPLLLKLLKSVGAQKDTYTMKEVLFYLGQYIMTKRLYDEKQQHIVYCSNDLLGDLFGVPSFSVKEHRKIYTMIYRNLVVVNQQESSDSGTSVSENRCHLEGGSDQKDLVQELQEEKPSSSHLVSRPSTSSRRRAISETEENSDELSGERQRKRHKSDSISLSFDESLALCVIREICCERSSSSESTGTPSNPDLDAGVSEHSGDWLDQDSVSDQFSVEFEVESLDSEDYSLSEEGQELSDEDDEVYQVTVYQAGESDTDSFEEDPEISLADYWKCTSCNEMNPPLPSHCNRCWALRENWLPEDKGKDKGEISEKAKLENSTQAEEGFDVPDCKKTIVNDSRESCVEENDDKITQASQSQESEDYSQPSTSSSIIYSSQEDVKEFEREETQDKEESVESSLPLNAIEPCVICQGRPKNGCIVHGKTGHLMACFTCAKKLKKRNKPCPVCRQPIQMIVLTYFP

As to `CC(C)(C)C[C@@H]1N[C@@H](C(=O)N[C@H]2CC[C@H](O)CC2)[C@H](c2cccc(Cl)c2F)[C@]12C(=O)Nc1cc(Cl)ccc12` [Compound 2, reference compound], in data set [1] (setting [9]), the “antitumor activity in SJSA-1 xenograft model” value is given as “complete tumor regression”. Besides, in [2], the “apoptosis induction (cleavage of PARP and caspase-3) in SJSA-1 xenograft tumor tissue” value (“apoptosis induction” below) was “induce strong apoptosis”; the “p53 activation (MDM2, p53, p21 levels) in SJSA-1 xenograft tumor tissue” value is recorded as “robust activation of p53”. Also, the purity retained (in solutions after 7 days (slow isomerization)) is 93–96%.
By IC50 is commonly meant the concentration at which inhibition is half-maximal. For `O=C(N[C@H]1CC[C@H](O)CC1)[C@@H]1NC2(CCCCC2)[C@@]2(C(=O)Nc3cc(Cl)ccc32)[C@H]1c1cccc(Cl)c1F` [Compound 6, (3′R,4′S,5′R)-6″-Chloro-4′-(3-chloro-2-fluorophenyl)-N-((1r,4R)-4-hydroxycyclohexyl)-2″-oxodispiro[cyclohexane-1,2′-pyrrolidine-3′,3″-indoline]-5′-carboxamide], the decomposition (after 2 days in cell culture media, UPLC) was less than 1%. In [3] (read-out: SJSA-1 cell growth inhibition IC50), the half-inhibitory concentration (IC50) is 190 nM. Further, the “antitumor activity in SJSA-1 xenograft model” value in data set [4] is given as “strong tumor growth inhibition but not complete tumor regression”.
Turning to `CNC(=O)[C@@H]1NC2(CCNCC2)[C@@]2(C(=O)Nc3cc(Cl)ccc32)[C@H]1c1cccc(Cl)c1F` [Compound 8, (3R,4′S,5′R)-6-Chloro-4′-(3-chloro-2-fluorophenyl)-N-methyl-2-oxodispiro[indoline-3,3′-pyrrolidine-2′,4″-piperidine]-5′-carboxamide], the “no appreciable binding to MDM2 up to” value in [5] is more than 2 µM.
As for `CN1[C@@H](c2nc(CC(=O)O)cs2)[C@H](c2cccc(Cl)c2F)[C@]2(C(=O)Nc3cc(Cl)ccc32)C12CCCCC2` [Compound 27, 2-(2-((3′R,4′S,5′R)-6″-Chloro-4′-(3-chloro-2-fluorophenyl)-1′-methyl-2″-oxodispiro[cyclohexane-1,2′-pyrrolidine-3′,3″-indolin]-5′-yl)thiazol-4-yl)acetic Acid], the 50% inhibitory concentration (IC50) in data set [6] was more than 2000 nM.
As for `O=C(O)[C@@H]1NC2(CCCCC2)[C@@]2(C(=O)Nc3cc(Cl)ccc32)[C@H]1c1cccc(Cl)c1F` [Compound 29], the IC50 in data set [3] (read-out: SJSA-1 IC50, cell growth inhibition) is more than 10000 nM.
Turning to `O=C(N[C@H]1CC[C@H](C(=O)O)CC1)[C@@H]1NC2(CCCCC2)[C@@]2(C(=O)Nc3cc(Cl)ccc32)[C@H]1c1cccc(Cl)c1F` [Compound 33, (1R,4r)-4-((3′R,4′S,5′R)-6″-Chloro-4′-(3-chloro-2-fluorophenyl)-2″-oxodispiro[cyclohexane-1,2′-pyrrolidine-3′,3″-indoline]-5′-carboxamido)cyclohexane-1-carboxylic Acid], in [1] (setting [9]), the “antitumor activity in SJSA-1 xenograft model” value is recorded as “effectively retard tumor growth, it failed to achieve tumor regression”. Further, where the note is “CH3CN/H2O, MeOH/H2O or cell culture media, 2 days”, the stability in solution entry is “can decompose in solution”.
On to `O=C(O)c1ccc(NC(=O)[C@@H]2NC3(CCCCC3)[C@@]3(C(=O)Nc4cc(Cl)ccc43)[C@H]2c2cccc(Cl)c2F)cc1` [Compound 39], for which the “antitumor activity in SJSA-1 xenograft model” value in data set [4] is on record as “partial tumor regression”. Also, the stability in solution result in data set [7] is “very stable in solution”.
In the case of `CC1(C)CCC2(CC1)N[C@@H](C(=O)Nc1ccc(C(=O)O)cc1)[C@H](c1cccc(Cl)c1F)[C@]21C(=O)Nc2cc(Cl)ccc21` [Compound 54, 4-((3′R,4′S,5′R)-6″-Chloro-4′-(3-chloro-2-fluorophenyl)-4,4-dimethyl-2″-oxodispiro[cyclo-hexane-1,2'-pyrrolidine-3′,3″-indoline]-5'-carboxamido)benzoic Acid], the “antitumor efficacy (regression)” value in data set [1] is reported as 87% regression. The “antitumor activity in SJSA-1 xenograft model” value in data set [1] (oral gavage 50 mg/kg daily for 14 days) was “effectively retards tumor growth”.
As to `O=C(NC12CCC(C(=O)O)(CC1)CC2)[C@@H]1NC2(CCCCC2)[C@@]2(C(=O)Nc3cc(Cl)ccc32)[C@H]1c1cccc(Cl)c1F` [Compound 56, 4-((3′R,4′S,5′R)-6″-Chloro-4′-(3-chloro-2-fluorophenyl)-2″-oxodispiro[cyclohexane-1,2′-pyrrolidine-3′,3″-indoline]-5′-carboxamido)bicyclo[2.2.2]octane-1-carboxylic Acid], in [1], the “weight loss of mice during the experiment” value (shortened to “weight loss”) was “no or minimal weight loss” and the “antitumor efficacy (regression)” value is “no regression”. The “apoptosis induction” value in data set [2] is “no cleavage of PARP and caspase-3”.
As for `O=C(NC12CCC(C(=O)O)(CC1)CC2)[C@@H]1NC2(CCC(F)(F)CC2)[C@@]2(C(=O)Nc3cc(Cl)ccc32)[C@H]1c1cccc(Cl)c1F` [Compound 57, 4-((3′R,4′S,5′R)-6″-Chloro-4′-(3-chloro-2-fluorophenyl)-4,4-difluoro-2″-oxodispiro[cyclohexane-1,2′-pyrrolidine-3′,3″-indoline]-5′-carboxamido)bicyclo[2.2.2]octane-1-carboxylic Acid], the “apoptosis induction” value in data set [2] is “modest effect on activation of p53 and induction of cleavage of PARP and caspase-3”.
The same measure, in the same setting: as for `CS(=O)(=O)NC(=O)C12CCC(NC(=O)[C@@H]3NC4(CCCCC4)[C@@]4(C(=O)Nc5cc(Cl)ccc54)[C@H]3c3cccc(Cl)c3F)(CC1)CC2` [Compound 58, (3′R,4′S,5′R)-6″-Chloro-4′-(3-chloro-2-fluorophenyl)-N-(4-((methylsulfonyl)carbamoyl)-bicyclo[2.2.2]octan-1-yl)-2″-oxodispiro[cyclohexane-1,2′-pyrrolidine-3′,3″-indoline]-5′-carboxamide], the entry is “modest effect on activation of p53 and induction of cleavage of PARP and caspase-3”.
`CN1[C@@H](C(=O)NC23CCC(C(=O)O)(CC2)CC3)[C@H](c2cccc(Cl)c2F)[C@]2(C(=O)Nc3cc(Cl)ccc32)C12CCCCC2` [Compound 59, 4-((3′R,4′S,5′R)-6″-Chloro-4′-(3-chloro-2-fluorophenyl)-1′-methyl-2″-oxodispiro[cyclohexane-1,2′-pyrrolidine-3′,3″-indoline]-5′-carboxamido)bicyclo[2.2.2]octane-1-carboxylic Acid]: the “weight loss” value in [1] is “no or minimal weight loss”. In addition, the “antitumor activity in SJSA-1 xenograft model” value in data set [1] (setting [10]) was “effectively inhibits tumor growth”; in data set [1] (setting [9]), “complete and long-lasting tumor regression”. In addition, the “persistence of p53 activation in SJSA-1 xenograft tumor tissue” value in data set [2] came to 24 h.
In the case of `CCN1[C@@H](C(=O)NC23CCC(C(=O)O)(CC2)CC3)[C@H](c2cccc(Cl)c2F)[C@]2(C(=O)Nc3cc(Cl)ccc32)C12CCCCC2` [Compound 60, 4-((3′R,4′S,5′R)-6″-Chloro-4′-(3-chloro-2-fluorophenyl)-1′-ethyl-2″-oxodispiro[cyclohexane-1,2′-pyrrolidine-3′,3″-indoline]-5′-carboxamido)bicyclo[2.2.2]octane-1-carboxylic Acid], the “weight loss” value in data set [1] was “no or minimal weight loss”. Also, the “antitumor activity in SJSA-1 xenograft model” value in data set [1] (setting [10]) was “effectively inhibits tumor growth”; in [1] (setting [9]), “complete and long-lasting tumor regression”. Besides, the “persistence of p53 activation in SJSA-1 xenograft tumor tissue” value in [2] stood at 24 h. For the same compound, the “antitumor activity in RS4;11 xenograft model” value in data set [8] (200 mg/kg weekly dosing for 3 weeks) and in data set [8] (oral 100 mg/kg daily for 14 days) was “partial tumor regression” throughout. In addition, the “tolerability in RS4;11 xenograft experiment” value in data set [8] (mice, 50, 75, 100 mg/kg daily or 200 mg/kg weekly) was “well tolerated at all doses and schedules”. Besides, the “chemical stability in solutions” value (1:1 CH3CN/H2O, 1:1 MeOH/H2O, cell culture media, 7 days) is “very stable in solutions for a period of 7 days”.
